Measured values reported in article PMC8592623, “Enhanced oral bioavailability of koumine by complexation with hydroxypropyl-β-cyclodextrin: preparation, optimization, ex vivo and in vivo characterization” (Drug Delivery, 2021).
In brackets after ≈: the same amount, converted by molar mass.

How the values were obtained:
[1] = previously investigated in our laboratory; cited from earlier work
[2] = In vivo pharmacokinetics study after oral administration; conditions: oral gavage 12 mg/kg, male SD rats, n = 6; for AUC0–12 (AUC0-t): 12 mg/kg
Method: The in vivo pharmacokinetic study was approved by the Institutional Animal Ethical Committee, Fujian Medical University, China. Male SD rats (200 ± 20 g) have fasted for 12 h with free access to water before oral administration. The rats were divided randomly into two groups (n = 6) and received KME or KME/HP-β-CD by oral gavage at a drug dose of 12 mg/kg. The KME powder and KME/HP-β-CD were dispersed in deionized water containing 0.1% sodium carboxymethylcellulose (CMC-Na). Blood samples were collected at predetermined intervals (0.05, 0.1, 0.16, 0.5, 1, 3, 6, 9, and 12 h) from the retroorbital venous sinus, and placed in heparinized anticoagulant tubes. After centrifugation at 4,000 rpm for 10 min at 4 °C, the plasma was separated and stored at −80 °C until UPLC-MS/MS analysis.
Plasma samples were prepared by the protein precipitation method (Chen et al. [2013]). Briefly, an aliquot of 50 μL plasma sample and 200 μL of acetonitrile containing 10 ng/mL gelsemine (internal standard, IS) were added to a centrifuge tube. The mixture was vortexed for 5 min and centrifuged at 18,000 rpm for 10 min at 4 °C. Then the supernatant was transferred and injected into the UPLC-MS/MS system for analysis. Chromatographic separation was performed using a UPLC instrument (Agilent 1290, Agilent Technologies, USA), equipped with a mass spectrometer (QTRAP® 5500, AB SCIEX, USA). The mass spectrometer detector was performed with multiple reactions monitoring scan mode at m/z 307.2 → 180.1 for KME and m/z 323.1 → 236.1 for IS. More detailed information about UPLC-MS/MS is provided in the supplementary material. The main pharmacokinetic parameters such as T1/2, Cmax, Tmax, and area under the curve (AUC), were determined using the non-compartmental model with DAS 3.2.1 software. The relative bioavailability F was calculated by the following equation: F(%) =(AUC0–t (inclusion complexes)/AUC0–t(KME)) × 100%

[3] = design: method as in Wang et al. [2019]; conditions: from parameters of published reports; ref Wang et al. [2019]; cited from earlier work
[4] = previously investigated in our laboratory; cited from earlier work; remark: listed apart in the source
[5] = Saturation solubility in distilled water; format: physicochemical; conditions: 37 °C, saturated solution
Method: Excess KME and KME/HP-β-CD were added to distilled water to obtain a supersaturated solution (Arya & Raghav [2021]). The samples were shaken at 37 °C for 24 h and 100 rpm. After centrifugation, the supernatants were filtered through a 0.45 μm membrane and the solubility was determined (n = 3) with the validated HPLC method.

[6] = test system: rat intestines (everted gut sac: duodenum, jejunum, ileum, colon); experiment: Ex vivo everted gut sac experiments; format: in vitro ADME
Method: The protocol of the animal study was approved by the Institutional Animal Care and Use Committee of Fujian Medical University (permit number: SYXK (Min) 2018-0001), China. Male SD rats weighing 220–250 g were fasted overnight before the experiment and with free access to water. The everted gut sac method was carried out as in previously published reports with minor modifications (Tambe et al. [2019]). Rats were anesthetized and sacrificed, and the intestinal segments of interest were identified and dissected (duodenum, starting 1 cm from the stomach; jejunum, 10–18 cm from the stomach; ileum, starting 8 cm above the cecum; colon, 5 cm below the cecum) (Rong et al. [2013]).
Each obtained intestinal segment was immediately washed with ice-cold Krebs-Ringer (K-R) solution, and then turned out with a glass rod, and one end was ligated with a thread. After inserting the glass tube, the other open end of the everted sacs was also tightened. Then blank K-R solution (2.5 mL) was added to the everted gut sacs. The everted segments were preincubated in 50 mL of K-R solution at 37 °C for 5 min. […] After the experiment, the length of each intestinal segment was accurately measured, and the concentration of KME was measured by HPLC. The apparent permeability coefficient (Papp) values of KME were calculated by the following equation (Tambe et al. [2019]): […]

[7] = In vitro drug release, dialysis bag diffusion method; format: physicochemical; conditions: pH 6.8 phosphate buffer, 37 °C
Method: A dialysis bag diffusion method was used to evaluate in vitro drug release profiles of both KME and KME/HP-β-CD (Zhao et al. [2021]). 2 mg of KME was dispersed in water, and then transferred to a dialysis bag and placed in a beaker containing 40 mL of pH 6.8 phosphate buffer. The study was carried out at 37 ± 0.5 °C and a magnetic stirring speed of 100 rpm. Aliquots of approximately 4 mL were taken out at predetermined time intervals (10 min, 15 min, 30 min, 1 h, 2 h, 3 h, and 6 h) and replaced by the same volume of fresh buffer to maintain a constant volume of dissolution media during sampling. The samples were filtered and analyzed by HPLC.

[8] = introduction, no reference given; cited from earlier work
[9] = Phase solubility study (Higuchi and Connors); format: physicochemical
Method: The phase solubility studies were carried out according to the method of Higuchi and Connors (Jansook et al. [2018]; Higuchi & Connors [1965]). Briefly, an excess of KME was added to 200 μL aqueous solutions of different HP-β-CD concentrations (1, 2, 4, 6, 8, and 10 mM). All samples were shaken at 25 °C and 100 rpm for 72 h until reaching equilibrium. Subsequently, the samples were withdrawn and filtered through a 0.45 µm membrane to remove undissolved KME. The concentration of KME in the HP-β-CD solutions was determined by an HPLC method, and the analyses were performed in triplicate (n = 3). The apparent stability constants (Ks) were calculated by the following equation (Nair et al. [2014]; Pinto et al. [2020]): Ks = slope/So (1-slope), where So represents the intrinsic solubility of the drug, and the slope is the slope of the linear KME-CD phase solubility diagram.

[10] = Caco-2 permeability study; format: in vitro ADME; conditions: human, 50 μg/mL KME equivalent
Method: Caco-2 cells were seeded at a density of 5 × 10^5 cells/well on top of 12-well Transwell® polycarbonate filters, and cultured in a 5% CO2 incubator at 37 °C for 21 days. The medium was changed every 2 days in the first week, and then every day for the next two weeks. At the end of 21 days, a Millicell-ERS epithelial voltmeter (Merck, USA) was used to analyze the transepithelial electrical resistance (TEER) value of Caco-2 cells. Only monolayers with TEER values higher than 600 Ω·cm^2 can be used in subsequent transport experiments (Chen et al. [2018]).
To investigate the permeability of KME and KME/HP-β-CD inclusion complexes in Caco-2 cells, the apical to basal (A-B) and basal to apical (B-A) transport of KME was measured. After preincubation for 30 min with blank HBSS, 0.5 mL of HBSS medium containing KME or KME/HP-β-CD (equivalent KME concentration of 50 μg/mL) was added to the apical side in the A-B direction experiments, and 1.5 mL of fresh HBSS was added to the basolateral side of the inserts as the acceptor phase. In contrast, for the B-A direction experiments, 1.5 mL of HBSS medium containing KME or KME/HP-β-CD (equivalent KME concentration of 50 μg/mL) was added to the basolateral side, and 0.5 mL of fresh HBSS was added to the apical side of the inserts as the acceptor phase. The plates were incubated in a shaker at 37 °C. 100 μL of the sample were taken from the acceptor side at predetermined time intervals (30, 60, 90, and 120 min) and replaced by the same volume of fresh HBSS to maintain a constant volume. Finally, the obtained samples were analyzed by HPLC. The Papp values (cm/s) were determined using the following equation (McCartney et al. [2019]; Patel & Sawant [2019]): Papp=(dQ/dt)/(A×C0),where dQ/dt is the steady−state flux, A is the surface area of the monolayer (1.12 cm^2), and C0 is the donor concentration (50 μg/mL). TEER (Ω·cm^2)=(TEER (Ω) –TEER blank (Ω)) × A(cm^2)
Here, TEER (Ω), Caco-2 monolayers; TEER blank (Ω), the insert without cells; A (cm^2), 1.12 cm^2.

[11] = Cell viability study (CCK-8 assay); format: cell-based; conditions: human, Caco-2, 5–100 μg/mL, read-out: viability of Caco-2 cells
Method: The cytotoxicity of KME and KME/HP-β-CD was evaluated in Caco-2 cells using the cell counting kit-8 (CCK-8) assay. Caco-2 cells were cultured in DMEM containing 20% FBS and incubated at 37 °C with 5% CO2. Caco-2 cells (1 × 10^4 cell/well) were seeded in 96-well plates and incubated for 24 h. Then, 100 μL of fresh medium containing KME or KME/HP-β-CD (5–100 µg/mL) was added. After 24 h, the culture medium was changed with CCK-8 solution and the samples were incubated for another 2 h. The optical density (OD) was read at 490 nm (BioTek Instruments, Winooski).

C=C[C@@]12CN(C)[C@H]3C[C@]14C(=Nc1ccccc14)[C@H]1C[C@@H]2[C@@H]3CO1 [KME, Koumine]
absolute bioavailability (Fabs) in beagle dogs [1]: 5.67%
AUC0–12 (AUC0-t) ([2]; listed as KME suspension): 72.50 ± 15.25 ng·h/mL
AUC0–12 (AUC0-t) ([2]; listed as Raw KME): 26.48 ± 17.80 ng·h/mL
AUC(0-inf) ([2]; rat, plasma): 30.2 ± 16.6 ng·h/mL
Cmax ([2]; rat, plasma): 22.8 ± 15.6 ng/mL
Tmax ([2]; rat, plasma): 19.8 ± 12 min
half-life ([2]; rat, plasma): 51.6 ± 7.2 min
absolute bioavailability (Fabs) [3]: 1%
absolute bioavailability (Fabs) in rats [4]: 14.30%
solubility at 24 h [5]: 700 µg/mL (≈ 2280 µM)
order of absorption flux in the intestinal segments ([6]; 100 μg/mL, up to 120 min): ileum > duodenum > jejunum > colon
KME absorption in colon segment with verapamil versus without ([6]; colon, verapamil 100 μg/mL (inhibitor of P-gp)): no significant difference
release rate in the first 1 h ([7]; 1 h): 40%
release rate within 6 h ([7]; 6 h): 70%
solubility in water [8]: < 1000 µg/mL
solubility at 72 h ([9]; 10 mM HP-β-CD aqueous solution, 25 °C, 72 h, read-out: solubility of KME at 10 mM HP-β-CD): 1810 µg/mL (≈ 5910 µM)
increase of KME solubility at 10 mM HP-β-CD ([9]; 10 mM HP-β-CD versus water): 2.59 fold
solubility thermodynamic at 72 h ([9]; water, 25 °C, 72 h, no HP-β-CD, read-out: equilibrium solubility of KME in water): 700 ± 20 µg/mL (≈ 2280 µM)
efflux ratio at 120 min, 50 µg/mL ([10]; read-out: efflux ratio (B-A permeability/A-B permeability)): 1.74
Papp A→B at 120 min, 50 µg/mL ([10]; apical to basal, 120 min): 7.78 ± 2.01 ×10⁻⁶ cm/s
Papp B→A at 120 min, 50 µg/mL ([10]; basal to apical, 120 min): 13.5 ± 1.72 ×10⁻⁶ cm/s
viability at 24 h [11]: > 90%
